In assay [1] the test system is H1299 transfectants of wild type, H694R and E1384K ALKs. In words: WST-1 cell growth, wild type and mutated ALK transfectants together. The following applies: both wild type and mutated ALK transfectants. The class given is cell-based. The source says: The full-length cDNA of ALK-wild type was inserted into pCDNA3.0 vector by restriction sites Hind III and Not I. All ALK mutations were generated from the template of pCDNA3.0-ALK-wild type full-length construct using site-directed mutagenesis. H1299 and NIH3T3 cells were maintained in Dulbecco's Modified Eagle Medium (DMEM) medium supplemented with 10% Fetal Bovine Serum (FBS) and streptomycin. The H1299 and NIH3T3 cells were transfected with the expression constructs by Lipofectamine 2000 (Invitrogen) and further selected by G418 to establish mixtures of ALK-expressed transfectants.
For analysis of cell growth, a total of 1×10^3 cells/well was seeded in 96-well plate. After different culturing time, 10 μl/well WST-1 reagent (Roche Diagnostics) was added for reaction at 37° C. for 50 minutes. The absorbance at 450 nm was measured.

For assay [2], the system named is phosphorylated-Y1604 ALK. As to the kind of experiment: Western blotting of phosphorylated-Y1604 ALK expression in H1299 transfectants. The class given is cell-based. The following applies: both wild type and mutated ALK transfectants. The source says: For Western blotting analysis, the membranes were probed with specific antibodies against HA (Covance), phospho-tyrosine (4G10; Upstate Biotechnology), STAT3 (sc-482; Santa Cruz) and α-tubulin (DM1A; NeoMarkers). The phospho-ALK (Tyr1604), phospho-Akt ([…]), phospho-STAT3 (Tyr705), phospho-ERK (Thr202/Tyr204), Akt and ERK antibodies were purchased from Cell Signaling. For IHC staining assay, the tissue sections were stained with specific antibodies against phospho-ALK (pY1604; Epitomics), ALK (4204-1; Epitomics), phospho-STAT3 (Tyr705, D3A7; Cell Signaling) and phospho-Akt (Ser473, 736E11; Cell Signaling). The ALK inhibitor WHI-P154 was purchased from Calbiochem.
Cells were lysed in RIPA buffer (200 mM Tris, 150 mM NaCl, 1 mM EDTA, 1% NP40, 1 mM PMSF, 1 mM DTT) with addition of 1× phosphatase inhibitor cocktail set II from Calbiochem and 1× cocktails of protease inhibitor from Roche. The protein concentration was measured by BCA protein assay kit (Pierce Chemical). The equal amounts of cell lysates were subjected to SDS-PAGE, transferred to NC membranes, and then probed with specific antibody for protein detection. For co-immunoprecipitation assay, the equal amounts of cell lysates were firstly incubated with anti-HA antibody for one hour and subsequently reacted with protein A/G for overnight. […]
Background: A western blot detects proteins with antibodies after separation by electrophoresis.

The test system of assay [3] is H1299 cells. As to the kind of experiment: Anchorage-independent growth (soft agar) assay. The class given is cell-based. Particulars: compared with DMSO control. The procedure:
A total of 2×10^4 H1299 or NIH3T3 transfectants were mixed in a final 0.3% agarose and plated onto the 60-mm plate containing 0.5% agarose. These cells were further cultured in 5% CO2 incubator at 37° C. for one month. The plates were dehydrated at room temperature and then stained with 0.3% crystal violet for visualizing colonies. The colony numbers were counted by using Image-pro plus analysis program.

The subject of assay [4] is H1299 cells. As to the kind of experiment: Boyden chamber cell migration assay. The class given is cell-based. Particulars: compared with DMSO control. On the procedure: The cell migration capability was examined by Boyden chamber assay. Briefly, a total of 2×10^4 H1299 or NIH3T3 transfectants were inoculated into the cell migration insert (BD Biosciences) containing 350 μl DMEM medium alone, and the insert was placed into the well containing 750 μl complete DMEM medium in 24-well plate. After 24 hours incubation, the migrated cells were fixed with 100% methanol and stained by Giemsa's solution (Merck). The numbers of migrated cells were counted by using Image-pro plus analysis program.

The subject of assay [5] is H694R and E1384K ALK H1299 transfectants xenograft. In words: In vivo xenograft tumor formation assay. Further details: species or system BALB/c NU mice. Particulars: ALK mutations-bearing mice, 1 mg/kg/day intravenously, versus DMSO control. On the procedure: (§1) Animal protocol was approved by the Institutional Animal Safety Committee. A total of 1×10^6 ALK-wild type or mutants expressed H1299 transfectants were mixed with matrigel (BD) and then subcutaneously injected into the right flank of four-week-old BALB/c NU mice. For WHI-P154 treatments, the nude mice were randomly divided into two groups when the mean tumor volume reached 20-50 mm^3. DMSO or WHI-P154 (1 mg/kg/day) was intravenously injected daily. The tumor volumes were measured weekly and calculated according to the formula: volume=length×width^2×0.52.

The test system of assay [6] is phosphorylated-Y1604 ALK. In words: IHC staining of phosphorylated-Y1604 ALK in xenograft tumor sections. Particulars: H694R and E1384K xenograft tumor sections, versus DMSO control. The class given is in vivo, nude mice. On the procedure: Human lung cancer tissue arrays containing 37 normal lung and 263 lung cancer sections from Pantomics (Luc961, Luc962, Luc1501, Luc1502 and Luc1503) were deparaffinized and the frozen tumor sections from the xenograft nude mice were fixed in 3% formaldehyde solution. All sections were treated in 3% H2O2 buffer for 30 minutes to inactivate the endogenous peroxidase activities, and then treated with 0.01M sodium citrate buffer for antigen retrieval. After blocking with 10% normal goat serum, these sections were reacted with specific antibodies at 4° C. for overnight. Subsequently, these sections were incubated with Super Picture HRP polymer conjugate secondary antibody (Zymed Laboratories), and then stained with DAB chromagen (Zymed Laboratories). These sections were also stained with Hematoxylin (DAKO).
as §1

Assay [7] deals with GFP-labeled H1299 transfectants of H694R and E1384K ALK. In words: In vivo metastasis assay (tail vein injected lung metastasis model). The following applies: 1 mg/kg/day intravenously. Further details: species or system nude mice. The procedure: In order to examine the in vivo metastatic capability, ALK wild type or mutations expressed H1299 transfectants were infected with GFP-lentivirus to generate the GFP fluorescence-labeled cells. A total of 2×10^6 cells were injected into nude mice through tail vein for measuring lung metastasis. For investigation of the tumor suppressive effects using ALK inhibitor, the nude mice were intravenously injected daily with WHI-P154 (1 mg/kg/day) after cell inoculation for 14 days. The survival rate was recorded daily and scarified the rest mice after 105 days. The pulmonary metastasis of GFP-labeled H1299 transfectants were visualized by fluorescence stereomicroscope.

Regarding `COc1cc2ncnc(Nc3ccc(O)c(Br)c3)c2cc1OC` [WHI-P154], the “inhibition of cell growth” value in assay [1] is “dose-dependent inhibition”. Besides, the “inhibition of expression of phosphorylated-Y1604 ALK” value in the assay on phosphorylated-Y1604 ALK [2] is on record as “dose-dependent inhibition”. Also, the “inhibition of soft agar growth” value in the assay with H1299 cells [3] is “profound inhibition”. Moreover, the “inhibition of cell migration” value in the assay with H1299 cells [4] is “profound inhibition”. Moreover, the tumor growth entry in assay [5] was “significant reduction of tumor growth”. For the same compound, the “expression of phosphorylated-Y1604 ALK in tumor sections” value with phosphorylated-Y1604 ALK [6] is listed as “significant lower expression of phosphorylated-Y1604 ALK”. Moreover, the survival result in assay [7] (mice with H694R and E1384K mutations) is listed as “survive as long as control mice”. In addition, the lung metastasis entry in assay [7] (mutation-bearing mice) is reported as “significantly suppresses lung metastasis”.

These data come from patent US20120129869A1, “PHOSPHORYLATION AND MUTATIONS OF ANAPLASTIC LYMPHOMA KINASE AS A DIAGNOSTIC AND THERAPEUTIC TARGET IN LUNG CANCER” (Academia Sinica, priority 2010, published 2012).
